In patent US11572394B2, “Peptides for targeting LRP6-overexpressed cells” (PASTEUR INSTITUTE OF IRAN, priority 2020, dated 2023):
Where a SMILES comes first, the peptide text is derived from it. Bridges are numbered along the chain shown (N, C = ends). Where no end group is shown, it is not given here.

What was measured:
Format in all cases: cell-based, human
SW480 [1] = assay: Annexin V/PI flow cytometry apoptosis assay; conditions: 24 hours, p<0.05; for cell death compared with HUVEC cell line: SW480, 1 mM; for cell death of SW480 compared with HCT116 cell line: 1 mM
Protocol: (§1) In this example, the apoptotic effect of exemplary peptides on cancer cells was examined by analyzing the number of apoptotic cells in HCT116 and SW480 and HUVEC cell lines before and after treatment with 1 mM of each exemplary peptide for 24 hours. Annexin V and propidium iodide (PI) staining were used to evaluate the apoptosis induced by treatment with exemplary peptides in each cell line. Stained cells may be counted by flow cytometry to calculate the percentage of apoptosis (Annexin V positive and PI negative) and necrosis percentage (Annexin V positive and […]) for each cell line.
(§2) The percentage of Annexin V positive and PI negative cells were considered early apoptosis, and the percentage of both Annexin positive and PI-positive cells was considered late apoptosis and necrosis. The sum of these two groups of cells was considered as the cell death rate.

HCT116 [2] = assay: Annexin V/PI flow cytometry apoptosis assay; conditions: 24 hours, p<0.05; for cell death compared with HUVEC cell line: HCT116, 1 mM
Protocol: as §1, §2

[3] = system: Wnt signaling pathway, HUVEC cell line; assay: Real-time PCR of LRP6 and downstream genes of the Wnt signaling pathway; conditions: treated against untreated
Protocol: (§3) In this example, the effect of exemplary peptides on the expression of LRP6 and downstream genes of the Wnt signaling pathway, such as β-catenin, cyclin D1, and C-MYC, was evaluated at transcription level using real-time PCR and at translation level using Western blotting. The Gapdh gene was used as the reference gene. The expression fold change of more than 2 times (treated cell against untreated cell) was defined as increasing expression, and cases with a fold change of 0.5 to 2 were unchanged, and cases with expression fold change less than 0.5 were considered as a reduction in expression.

[4] = system: Wnt signaling pathway, SW480 cell line; assay: as above; conditions: treated against untreated
Protocol: as §3

[5] = system: Wnt signaling pathway, HCT116 cell line; assay: as above; conditions: treated against untreated
Protocol: as §3

[6] = system: Wnt signaling pathway, SW480 cell line; assay: Western blotting of LRP6 and β-catenin proteins with signal densitometry; conditions: SW480, Western blot signal densitometry
Protocol: as §3
(§4) Also, the effect of exemplary peptides on the levels of LRP6 and β-catenin proteins in the β-catenin/Wnt signaling pathway was investigated by Western blotting. Also, each protein's relative expression was determined through signal densitometry of each Western blot band.

[7] = system: Wnt signaling pathway, HCT116 cell line; assay: as above; conditions: HCT116, Western blot signal densitometry
Protocol: as §3, §4

[8] = system: Wnt signaling pathway, HUVEC cell line; assay: as above; conditions: Western blot signal densitometry
Protocol: as §3
Also, the effect of exemplary peptides on the levels of LRP6 and β-catenin proteins in the β-catenin/Wnt signaling pathway was investigated by Western blotting. Also, each protein's relative expression was determined through signal densitometry of each Western blot band. FIG. 11A illustrates relative expression β-actin, β-catenin, and LRP6 in SW480, HCT116, and HUVEC cell lines, consistent with one or more exemplary embodiments of the present disclosure. Referring to FIG. 11A, the relative expressions of β-catenin and LRP6 in SW480 and HCT116 were higher than HUVEC as a normal cell.

SW480 [9] = assay: Cell cycle analysis by flow cytometry (DNA content); conditions: SW480, 24 hours
Protocol: (§5) In this example, the effect of exemplary peptides on the cell cycle was determined through flow cytometry and measurement of DNA content in cells. In this experiment, HCT116, SW480, and HUVEC cell lines were cultured in 24-well plates and treated with 1 mM of each exemplary peptide for 24 hours.
(§6) The cell proliferation index may be calculated by dividing the percentage of cells present in the S and G2 stages by the percentage of cells in the G1, S, and G2 stages. […] Also, the proliferation index in SW480 and HCT116 cell lines decreased after treatment with exemplary peptides (SEQ ID NOs: 1-4). On the other hand, the decrease in the proliferation index of HUVEC cells was smaller than that of SW480 and HCT116 cell lines.

HUVEC = assay: as above; conditions: 24 hours
Protocol: as §5, §6

HCT116 [10] = assay: as above; conditions: HCT116, 24 hours
Protocol: as §5, §6

## CC[C@H](C)[C@H](NC(=O)[C@H](CCC(=O)O)NC(=O)[C@H](CC(C)C)NC(=O)CNC(=O)[C@H](Cc1c[nH]cn1)NC(=O)[C@H](CO)NC(=O)CNC(=O)[C@H](CCCCN)NC(=O)[C@H](CCCNC(=N)N)NC(=O)[C@H](CCCNC(=N)N)NC(=O)[C@H](Cc1c[nH]cn1)NC(=O)[C@H](CCCCN)NC(=O)[C@@H](NC(=O)[C@H](CS)NC(=O)[C@@H](NC(=O)[C@@H](N)CCC(N)=O)C(C)C)[C@@H](C)O)C(=O)N[C@@H](Cc1ccccc1)C(=O)N[C@@H](CCC(N)=O)C(=O)N[C@@H](CCCNC(=N)N)C(=O)N[C@@H](CS)C(=O)N[C@@H](Cc1ccc(O)cc1)C(=O)O [Pep-2] (H-QVCTKHRRKGSHGLEIFQRCY-OH; N-terminus and C-terminus assumed)
SW480 [1]
  cell death compared with HUVEC cell line: significantly higher
HCT116 [2]; 1 mM
  cell death rate of HCT116 compared with SW480: significantly higher
HCT116 [2]
  cell death compared with HUVEC cell line: significantly higher
[3]
  expression of C-MYC gene: did not change
  expression of LRP6 gene: did not change
  expression of cyclin D1 gene: did not change
  expression of β-catenin gene: did not change
[4]
  expression of C-MYC gene: reduced
  expression of LRP6 gene: did not change
  expression of cyclin D1 gene: reduced
  expression of β-catenin gene: reduced
[5]
  expression of C-MYC gene: reduced
  expression of LRP6 gene: did not change
  expression of cyclin D1 gene: reduced
  expression of β-catenin gene: reduced
[6]
  decrease of β-catenin protein level: 20%
[7]
  decrease of β-catenin protein level: 20%

## CC[C@H](C)[C@@H]1NC(=O)[C@H](CCCCN)NC(=O)[C@H](CO)NC(=O)[C@H](Cc2c[nH]c3ccccc23)NC(=O)[C@H](Cc2ccccc2)NC(=O)[C@H](Cc2c[nH]cn2)NC(=O)[C@H](CCCNC(=N)N)NC(=O)[C@H](C)NC(=O)[C@H](CS)NC(=O)[C@@H](N)CSSC[C@@H](C(=O)O)NC1=O [Pep-4] (H-CCARHFWSKIC-OH; disulfide 1-11)
SW480 [1]
  cell death of SW480 compared with HCT116 cell line: significantly higher
  cell death compared with HUVEC cell line: significantly higher
[3]
  expression of C-MYC gene: have not changed
  expression of LRP6 gene: have not changed
  expression of cyclin D1 gene: have not changed
  expression of β-catenin gene: have not changed
[4]
  expression of C-MYC gene: reduced
  expression of LRP6 gene: did not change
  expression of cyclin D1 gene: reduced
  expression of β-catenin gene: reduced
[5]
  expression of C-MYC gene: reduced
  expression of LRP6 gene: did not change
  expression of cyclin D1 gene: reduced
  expression of β-catenin gene: reduced
[6]
  decrease of β-catenin protein level: 20%
[7]
  decrease of β-catenin protein level: 20%

## NGYITFQDGNDYFRFPLNN [Pep-3]
[8]
  effect on β-catenin protein content: no significant effect
[3]
  expression of C-MYC gene: did not change
  expression of LRP6 gene: did not change
  expression of cyclin D1 gene: did not change
  expression of β-catenin gene: did not change
[4]
  expression of C-MYC gene: did not change
  expression of LRP6 gene: did not change
  expression of cyclin D1 gene: did not change
  expression of β-catenin gene: did not change
[5]
  expression of C-MYC gene: did not change
  expression of LRP6 gene: did not change
  expression of cyclin D1 gene: did not change
  expression of β-catenin gene: did not change
[6]
  decrease of β-catenin protein level: no significant effect
[7]
  decrease of β-catenin protein level: no significant effect

## NSSSLSSGSGNNANGNFLTYY [Pep-1]
[8]
  effect on β-catenin protein content: no significant effect
SW480 [1]
  cell death of SW480 compared with HCT116 cell line: significantly higher
  cell death compared with HUVEC cell line: significantly higher
HCT116 [2]
  cell death compared with HUVEC cell line: significantly higher
[3]
  expression of C-MYC gene: did not change
  expression of LRP6 gene: did not change
  expression of cyclin D1 gene: did not change
  expression of β-catenin gene: did not change
[4]
  expression of C-MYC gene: did not change
  expression of LRP6 gene: did not change
  expression of cyclin D1 gene: did not change
  expression of β-catenin gene: did not change
[5]
  expression of C-MYC gene: did not change
  expression of LRP6 gene: did not change
  expression of cyclin D1 gene: did not change
  expression of β-catenin gene: did not change
[6]
  decrease of β-catenin protein level: no significant effect
[7]
  decrease of β-catenin protein level: no significant effect

B1: Wnt3a: Wnt3a protein, positive control of the Wnt signaling pathway (protein, UniProt P56704 19-352, looked up)
Protein Wnt-3a: SYPIWWSLAVGPQYSSLGSQPILCASIPGLVPKQLRFCRNYVEIMPSVAEGIKIGIQECQHQFRGRRWNCTTVHDSLAIFGPVLDKATRESAFVHAIASAGVAFAVTRSCAEGTAAICGCSSRHQGSPGKGWKWGGCSEDIEFGGMVSREFADARENRPDARSAMNRHNNEAGRQAIASHMHLKCKCHGLSGSCEVKTCWWSQPDFRAIGDFLKDKYDSASEMVVEKHRESRGWVETLRPRYTYFKVPTERDLVYYEASPNFCEPNPETGSFGTRDRTCNVSSHGIDGCDLLCCGRGHNARAERRREKCRCVFHWCCYVSCQECTRVYDVHTCK
[3]
  expression of C-MYC gene: did not change
  expression of LRP6 gene: did not change
  expression of cyclin D1 gene: did not change
  expression of β-catenin gene: did not change
[4]
  expression of C-MYC gene: increasing
  expression of LRP6 gene: increasing
  expression of cyclin D1 gene: increasing
  expression of β-catenin gene: increasing
[5]
  expression of C-MYC gene: increasing
  expression of LRP6 gene: increasing
  expression of cyclin D1 gene: increasing
  expression of β-catenin gene: increasing
SW480 [9]
  S and G2/M stage percentage: higher percentage
HUVEC
  S and G2/M stage percentage: higher percentage
HCT116 [10]
  S and G2/M stage percentage: higher percentage

B2: Wnt5a: Wnt5a, effective ligand for non-canonical Wnt signaling pathway, positive control (protein, UniProt P41221 62-380, looked up)
Protein Wnt-5a: IIGAQPLCSQLAGLSQGQKKLCHLYQDHMQYIGEGAKTGIKECQYQFRHRRWNCSTVDNTSVFGRVMQIGSRETAFTYAVSAAGVVNAMSRACREGELSTCGCSRAARPKDLPRDWLWGGCGDNIDYGYRFAKEFVDARERERIHAKGSYESARILMNLHNNEAGRRTVYNLADVACKCHGVSGSCSLKTCWLQLADFRKVGDALKEKYDSAAAMRLNSRGKLVQVNSRFNSPTTQDLVYIDPSPDYCVRNESTGSLGTQGRLCNKTSEGMDGCELMCCGRGYDQFKTVQTERCHCKFHWCCYVKCKKCTEIVDQFVCK
[3]
  expression of C-MYC gene: did not change
  expression of LRP6 gene: did not change
  expression of cyclin D1 gene: did not change
  expression of β-catenin gene: did not change
[4]
  expression of C-MYC gene: did not change
  expression of LRP6 gene: did not change
  expression of cyclin D1 gene: did not change
  expression of β-catenin gene: did not change
[5]
  expression of C-MYC gene: did not change
  expression of LRP6 gene: did not change
  expression of cyclin D1 gene: did not change
  expression of β-catenin gene: did not change
